This note sets out measurements from US12084444B2, “Spiro-lactam NMDA modulators and methods of using same” (Tenacia Biotechnology (Hong Kong) Co., Limited, priority 2016, dated 2024).

The AUC(0-t) is the area under the concentration-time curve up to a stated or last time point. Higher therefore signals high exposure. One may read the clearance as a measure of how efficiently the substance is removed, as volume per time. A low value points to a low capacity for elimination. In general, half-life refers to the time in which the quantity being followed falls by half. A low value points to rapid decline. The term bioavailability denotes the share of a dose that reaches the circulation, judged against a reference dose that is usually intravenous. Low values mean little systemic uptake, high ones much systemic uptake. What is called Tmax is the time at which the peak concentration occurs. A word on the Cmax: it is the peak of the concentration-time curve.

The nature of one data set: IV pharmacokinetics. The arrangement: species or system Sprague Dawley rats. The conditions noted are these: Sprague Dawley, in vivo, rat, 2 mg/kg, normal saline. The procedure: Sprague Dawley rats were dosed intravenously using a normal saline formulation containing 2 mg/kg of the compounds identified in the below table. The table below summarizes the results of the IV pharmacokinetics.

Data set [1] can be described thus: Oral pharmacokinetics (plasma, brain, CSF). It counts as in vivo, Sprague Dawley rats. The conditions noted are these: rat, per os, 10 mg/kg. How it is done:
In another experiment, Sprague Dawley rats were dosed per os using a normal saline formulation containing 10 mg/kg of the compounds identified in the table below. Plasma, brain, and CSF samples were analyzed at various time points over a 24 hour period. The table below summarizes the results of the oral pharmacokinetics.

In “IV pharmacokinetics”, `COc1ccc(CN2C[C@@]3(CCNC(=O)C3)C2=O)cc1` [Compound AA-2, 2-(4-methoxybenzyl)-2,7-diazaspiro[3.5]nonane-1,6-dione] had an exposure AUC(0-t) of 3370 ng·h/mL, a C0 of 1990 ng/mL, a clearance of 9.82 mL/min/kg and a half-life of 75 min. For the same molecule, the Vd in the data set “IV pharmacokinetics” (read-out: Vss) was 0.54 L/kg. In data set [1] (Sprague Dawley, plasma, po), this molecule returned an AUC(0-t) of 17300 ng·h/mL and a bioavailability of 100%. The Tmax in data set [1] (Sprague Dawley, plasma, po, normal saline) was 15 min. The same molecule returned a maximum concentration (Cmax) in data set [1] (Sprague Dawley, po, plasma) of 11300 ng/mL. For the same molecule, the “CSF Cmax” value in data set [1] (CSF) stood at 1476.3 ng/mL. Also, in data set [1] (brain), the “Brain Cmax” value is given as 1107.2 ng/mL.
